Article PMC3766423 (Cancer research, 2013)

Target: WRN helicase (Werner syndrome protein) (Homo sapiens, UniProt Q14191)
Experiment: in vitro WRN helicase
Assay type: biochemical

WRN helicase (Werner syndrome protein), sequence (Q14191 2-1432): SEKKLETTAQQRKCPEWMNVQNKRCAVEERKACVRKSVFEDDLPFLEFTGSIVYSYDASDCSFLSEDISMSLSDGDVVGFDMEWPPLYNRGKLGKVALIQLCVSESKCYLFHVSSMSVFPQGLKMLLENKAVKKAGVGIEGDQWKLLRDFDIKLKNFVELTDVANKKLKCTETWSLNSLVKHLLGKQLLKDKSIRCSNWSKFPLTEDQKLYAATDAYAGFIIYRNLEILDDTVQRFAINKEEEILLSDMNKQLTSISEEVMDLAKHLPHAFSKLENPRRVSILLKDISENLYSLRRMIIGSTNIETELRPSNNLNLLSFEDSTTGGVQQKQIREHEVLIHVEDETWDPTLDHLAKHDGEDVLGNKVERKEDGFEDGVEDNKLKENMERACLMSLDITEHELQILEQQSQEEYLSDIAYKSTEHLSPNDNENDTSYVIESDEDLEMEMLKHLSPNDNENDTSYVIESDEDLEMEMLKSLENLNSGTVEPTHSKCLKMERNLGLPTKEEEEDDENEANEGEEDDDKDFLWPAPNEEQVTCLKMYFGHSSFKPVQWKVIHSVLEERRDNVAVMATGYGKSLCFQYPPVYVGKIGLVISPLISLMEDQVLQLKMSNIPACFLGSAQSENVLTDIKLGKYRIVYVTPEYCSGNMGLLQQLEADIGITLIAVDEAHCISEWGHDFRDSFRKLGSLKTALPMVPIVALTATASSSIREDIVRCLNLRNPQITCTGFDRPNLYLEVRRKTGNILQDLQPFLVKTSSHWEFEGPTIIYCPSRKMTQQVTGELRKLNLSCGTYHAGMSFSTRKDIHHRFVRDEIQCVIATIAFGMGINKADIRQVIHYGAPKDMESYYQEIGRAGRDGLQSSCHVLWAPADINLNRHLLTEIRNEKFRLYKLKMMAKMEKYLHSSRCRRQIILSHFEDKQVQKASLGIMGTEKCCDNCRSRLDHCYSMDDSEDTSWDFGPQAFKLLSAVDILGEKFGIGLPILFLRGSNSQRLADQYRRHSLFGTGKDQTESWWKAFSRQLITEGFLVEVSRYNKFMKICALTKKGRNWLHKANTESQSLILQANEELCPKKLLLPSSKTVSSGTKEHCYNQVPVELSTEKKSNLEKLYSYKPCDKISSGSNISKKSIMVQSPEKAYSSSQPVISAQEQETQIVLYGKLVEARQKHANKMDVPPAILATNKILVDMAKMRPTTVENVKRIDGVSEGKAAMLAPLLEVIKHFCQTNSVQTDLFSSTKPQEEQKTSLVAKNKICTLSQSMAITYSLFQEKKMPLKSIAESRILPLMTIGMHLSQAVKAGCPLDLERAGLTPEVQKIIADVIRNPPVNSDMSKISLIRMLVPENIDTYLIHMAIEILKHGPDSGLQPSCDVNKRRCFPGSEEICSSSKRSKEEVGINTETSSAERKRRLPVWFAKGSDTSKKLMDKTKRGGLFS

CC(C)(CN1C(=O)C(Cl)=C(Cl)C1=O)CN1C(=O)C(Cl)=C(Cl)C1=O [NSC 617145]
IC50: 230 nM
